Assay results taken from patent publication US8410168B2, “Methods and compositions for treating ophthalmic conditions with retinyl derivatives” (Acucela, Inc., priority 2004, dated 2013).

Legend:
[1] = HPR concentration in the RPE of treated mice; type: in vivo
Experimental: We examined the effects on HPR on enzymes or proteins of the visual cycle using in vitro biochemical assays. Specifically, the utilization of exogenous all-trans retinol by membranes prepared from bovine RPE was studied. […] Steady-state levels of HPR in the RPE (determined from mice which have been given 20 mg/kg HPR, i.p., daily for 28 days) range from 5-10 μM. With this in mind, we examined the effects of 10 μM HPR on production of all-trans retinyl esters and 11-cis retinol in assays similar to those described above. […] In the presence of endogenous retinoids, utilization of exogenous all-trans retinol is extremely low and 11-cis retinol is produced solely from the endogenous all-trans retinyl esters. […] Thus, the retinoic acids appear to affect at least two targets in the visual cycle. We have determined that HPR-induced reduction of 11-cis retinol biosynthesis occurs via LRAT inhibition and reduction in all-trans retinyl ester levels. In this situation, the isomerase enzyme is starved for substrate and 11-cis retinol production declines.
(§1) We performed an analysis of the dissociation constant (KD) for 11cRAL and HPR binding to apo-CRALBP (see FIG. 15). […] This calculation is based upon the ligand concentration necessary to fully quench the protein fluorescence. The data reveal that both 11cRAL and HPR quench apo-CRALBP fluorescence maximally at ˜1.5 μM. Thus, although apo-CRALBP is described as an 11 cis-specific retinoid binding protein, it appears to bind HPR as well.
A second target for HPR in the visual cycle was identified using in vitro biochemical assays. Lecithin retinol acyl transferase (LRAT) catalyzes the conversion of retinol into retinyl esters. LRAT is critical not only for retinol-retinyl ester homeostasis but also for generation of substrate for visual chromophore biosynthesis. The data shown in panel A of FIG. 16 illustrate the inhibitory effect of HPR on the rate of retinyl ester synthesis. […] In a separate study, we have determined that HPR concentrations in the RPE approach 10 μM with a 10 mg/kg dose of HPR.

CRALBP = molecular target: T1, CRALBP (Homo sapiens, UniProt P12271); assay: Fluorescence quenching study of binding to CRALBP
T1 construct: made in house
Experimental: Apo-CRALBP at 0.5 μM was incubated with 1 μM of 11-cis Retinal (11cRAL), all-trans retinal (atRAL) or N-4-hydroxyphenyl retinamide (HPR) in PBS at room temperature for 1 hour. As a control, same volume of DMSO was added to the Apo-CRABLP solution. The emission spectra were measured between 290 nm to 500 nm with excitation wavelength at 280 nm and 2 nm bandpass (See FIG. 7).
Quenching of CRALBP protein fluorescence with 11-cis retinal (11cRAL). The fluorescence emission of recombinant apo-CRALBP (0.5 μM) was measured using 280 nm excitation (“no 11cRAL”).
Quenching of CRALBP protein fluorescence with HPR. The data shown were obtained using an experimental design identical to that described above. The fluorescence emission of recombinant apo-CRALBP was measured using 280 nm excitation (“no HPR”).
as §1

mice = assay: Retinoid composition, chromophore regeneration and electrophysiology in HPR-treated mice; type: in vivo; conditions: 10 mg/kg daily for 28 days
Text: Panels D-F of FIG. 17 are electrophysiological measurements of rod function (panel D), rod and cone function (panel E) and recovery from photobleaching (panel F).

ABCA4−/− mice = assay: HPR drug holiday after 28 days of treatment; type: in vivo, mouse
Experimental: HPR (10 mg/kg in DMSO) was administered to ABCA4−/− mice daily for a period of 28 days. Control ABCA4−/− mice received only DMSO for the same period. […] Importantly, the observed reductions in lipofuscin autofluorescence persist long after cessation of HPR therapy. HPR (10 mg/kg), or DMSO, administration was discontinued following 28 days of treatment and re-evaluated A2E and precursor levels after 2 weeks and after 4 weeks.
We examined eyecup extracts by HPLC and employed detection by absorbance and fluorimetry. Identity of the indicated peaks was confirmed by on-line spectral analysis and by co-elution with authentic standards. […] Further, the A2E and precursor (A2PE-H2 and A2PE) levels after a […] or 28-day drug holiday remained at or near the levels immediately following 28 days of treatment (i.e., ca. 50% reduction relative to control), although after the 28-day drug holiday, the amount of A2E and precursor (A2PE-H2 and A2PE) had increased by a few percentage points relative to the 12-day drug holiday levels. […] It is clear that peak fluorescence tracks with the abundance of A2E, A2PE and A2PE-H2.
This effect cannot be attributed to long-term reductions in serum retinol as serum retinol had returned to baseline 48 hours following the last HPR dose. […] Furthermore, HPR reduces serum retinol levels, which leads to a reduction in the level of retinol in the eyes of treated animals. Once the level of retinol has been reduced in the eye, there is a time lag in the subsequent increase in retinol levels in the eye. Alone or in combination, the production of A2E, A2PE and A2PE-H2 in the eye remains low despite the absence of HPR in the serum or the eye.

[2] = system: patients with a variety of cancers; conditions: human patients; cited from earlier work
LRAT = molecular target: T2, LRAT (Homo sapiens, UniProt O95237); conditions: cited from earlier work
T2 construct: host or cells: membranes from liver and small intestine
T2 sequence (O95237 1-230): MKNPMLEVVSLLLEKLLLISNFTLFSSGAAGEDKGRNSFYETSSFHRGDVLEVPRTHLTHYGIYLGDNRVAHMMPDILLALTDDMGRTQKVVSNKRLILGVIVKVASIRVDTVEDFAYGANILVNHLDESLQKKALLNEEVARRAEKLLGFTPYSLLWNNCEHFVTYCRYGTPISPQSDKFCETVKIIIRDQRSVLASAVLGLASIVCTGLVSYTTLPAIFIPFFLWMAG

T1 sequence (P12271 whole entry, species assumed): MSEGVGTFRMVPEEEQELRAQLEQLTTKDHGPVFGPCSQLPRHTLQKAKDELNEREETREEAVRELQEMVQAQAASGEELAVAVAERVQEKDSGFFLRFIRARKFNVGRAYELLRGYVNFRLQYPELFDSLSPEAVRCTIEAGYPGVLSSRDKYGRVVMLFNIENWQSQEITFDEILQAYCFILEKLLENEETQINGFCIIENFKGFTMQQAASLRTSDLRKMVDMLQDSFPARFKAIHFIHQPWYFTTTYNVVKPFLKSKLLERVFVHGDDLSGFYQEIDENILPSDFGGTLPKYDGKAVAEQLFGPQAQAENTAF

With CC1=C(/C=C/C(C)=C/C=C/C(C)=C/C(=O)Nc2ccc(O)cc2)C(C)(C)CCC1 [HPR, N-(4-hydroxyphenyl)retinamide] the “HPR concentrations in the RPE” value ([1]; 10 mg/kg dose of HPR) was ~10 µM, the concentration at 28 days ([1]; BL6/129, mouse, RPE (retinal pigment epithelium), intraperitoneal, 20 mg/kg HPR, i.p., daily for 28 days, read-out: steady-state levels of HPR in the RPE) was 5 to 10 µM and the “concentrations of HPR in the RPE during the animal trials” value ([1]; even at the lowest dose of 2.5 mg/kg) was “exceed 30 nM”. For the same molecule, the “concentration of maximal quenching of apo-CRALBP fluorescence” value (CRALBP) was ~1.5 µM, the “quenching of CRALBP fluorescence emission” value (CRALBP; 0.5 μM apo-CRALBP, 1 μM ligand, 1 hour, vs DMSO) was “lowest” and the “concentration dependence of CRALBP protein fluorescence quenching” value (CRALBP; 0.5 μM recombinant apo-CRALBP, 280 nm excitation) was “concentration dependent manner”. The Kd (CRALBP; transformation of fluorescence quenching data, read-out: dissociation constant (KD) for binding to apo-CRALBP) was ~30 nM, the “regeneration of visual chromophore” value (mice) was “does not affect” and the “reduction of A2E and precursor (A2PE-H2 and A2PE) levels relative to control” value (ABCA4−/− mice; 10 mg/kg 28 days, then 12- or 28-day drug holiday) was “ca. 50%”. The “detection in the eyes after drug holiday” value (ABCA4−/− mice; 28-day drug holiday) was “unable to detect”, the “time for serum retinol to return to baseline after the last HPR dose” value (ABCA4−/− mice; mouse, in vivo) was 48 h and the “plasma concentration after high fat meals versus carbohydrate meals” value [2] was “three times greater”. For the same molecule, the “LRAT activity in membranes prepared from liver and small intestine” value (LRAT) was “marked inhibition”.
